Source: patent US20240307365A1, “Pharmaceutical Composition for Preventing or Treating Systemic Sclerosis” (Daewoong Pharmaceutical Co., Ltd., priority 2021, published 2024)
Several values for one entry are separate records, joined by “and”; a condition that tells them apart may be missing. Equal entries are not always repeated.

Columns and labels:
[1] = system: 3D skin organoid prepared using iPSC-derived fibroblasts from patients with systemic dermatosis; test: Skin hardening alleviation in 3D skin organoid model (thickness by H&E staining); assay type: cell-based; settings: 1 μM in DMSO solution, control DMSO only (FIG. 1)
Experimental: A 3D skin organoid was prepared using iPSC-derived fibroblasts from patients with systemic dermatosis according to the method described in the literature (Lancet. 2009 Nov. 21;374(9703):1745-53). When 1 μM of active ingredient was treated with DMSO solution, it was confirmed through H&E immunochemical staining that the thickness of the 3D skin organoid was reduced (FIG. 1). The control group was treated with only DMSO.

[2] = system: mouse model of systemic scleroderma skin organoid transplantation; test: Skin hardening alleviation in 3D skin organoid transplantation mouse model (skin thickness, fibrosis factors by immunochemical staining); assay type: in vivo, SCID mice; settings: daily for 2 weeks
Excerpt: The previously constructed 3D skin organoid derived from the systemic scleroderma patient iPSC was transplanted into SCID mice to construct a mouse model of systemic scleroderma. The mouse skin tissue was cut into 1×2 cm, and then 3D skin organoid skin tissue was sutured to the mouse skin. For a skin transplantation method, it was transplanted to mice or the like using a tie-over dressing method used clinically. After placing a gauze on the suture site, it was tied with a suture and dressed with a band.
The active ingredient was subcutaneously administered at a dose of 3 mg/kg and 10 mg/kg daily for 2 weeks to a mouse model of systemic scleroderma skin organoid transplantation. For the negative control group (NC), a physiological saline was administered to a normal skin tissue, and for the positive control group (SSc), a physiological saline was administered to a systemic scleroderma skin organoid transplanted skin tissue. The skin thickness, which is the primary evaluation index of systemic scleroderma, was measured through immunochemical staining, and the results are shown in FIG. 2.
To confirm whether the fibrosis factor is reduced in systemic scleroderma skin tissue by the active ingredient, immunochemical staining was performed and the results are shown in FIG. 3.

[3] = system: systemic sclerosis-associated interstitial lung disease (SSc-ILD) mouse model administered with BLM; test: SSc-ILD bleomycin osmotic pump mouse model: body weight (%); assay type: in vivo, C57BL/6 mice; settings: for Body weight (%) change: individual animals 1-9
Excerpt: (§1) Seven-week-old C57BL/6 mice were obtained and acclimatized indoors for 5 days or more. For the systemic sclerosis-related interstitial lung disease model, an osmotic pump injection model was designed. For that reason, if it is not modeling using an osmotic pump, it is a model in which BLM should be injected subcutaneously into the back of the test animal every day for 4 weeks, and this is because these tests can cause very extreme pain at the site of administration.
(§2) The incision site was sutured, an osmotic pump was inserted, bleomycin was administered for 1 week, and then the osmotic pump was removed on the 10th day. It was confirmed that systemic sclerosis-associated interstitial lung disease was induced in a mouse model administered with BLM for 1 week, and specific experimental groups are shown in Table 1 below.

[4] = system: systemic sclerosis-associated interstitial lung disease (SSc-ILD) mouse model administered with BLM; test: SSc-ILD bleomycin osmotic pump mouse model: lung weight; assay type: in vivo, C57BL/6 mice; set-up: Lung weight: unit not given here; settings: for Lung weight: individual animals 1-9, unit not given
Excerpt: as §1, §2

[5] = system: systemic sclerosis-associated interstitial lung disease (SSc-ILD) mouse model administered with BLM; test: SSc-ILD bleomycin osmotic pump mouse model: lung function evaluation (SpO2); assay type: in vivo, C57BL/6 mice
Excerpt: as §1, §2
This lung function evaluation is an experiment to show the therapeutic effect of this active substance in patients with systemic sclerosis-associated interstitial lung diseases, and is the most direct and important evaluation index that has the greatest influence on the symptoms and quality of life of patients with systemic sclerosis-associated interstitial lung diseases, unlike the general pulmonary fibrosis ameliorating effect. This is an experiment that can most directly show the effect of improving lung function in an animal model of systemic sclerosis-associated interstitial lung disease by measuring the oxygen concentration in the body.
On the 21st day, it was measured with a SpO2 measuring device (Berry, Veterinary Pulse Oximeter) via the abdominal side of the mouse, and the results are shown in Table 5 and FIG. 3.

[6] = system: systemic sclerosis-associated interstitial lung disease (SSc-ILD) mouse model administered with BLM; test: SSc-ILD bleomycin osmotic pump mouse model: skin thickness (H&E, MT stain); assay type: in vivo, C57BL/6 mice; settings: day 28; for Skin thickness: individual animals 1-9
Excerpt: as §1, §2
On the day 28, skin tissues were extracted from mice and subjected to H&E and Mansson's Trichrome (MT stain). The skin thickness of 10 sites was measured randomly through the image of the photograph in which stain progressed (progressed at a minimum interval of 200˜300 um). The entire area of the photograph was measured as evenly as possible, and the areas where the stain tissue was damaged were excluded from the measurement.

[7] = system: systemic sclerosis-associated interstitial lung disease (SSc-ILD) mouse model administered with BLM; test: SSc-ILD bleomycin osmotic pump mouse model: collagen content (hydroxyproline) in skin tissue; assay type: in vivo, C57BL/6 mice; settings: for hydroxyproline value, ratio compared to a normal group: skin tissue, individual animals 1-9
Excerpt: as §1, §2
An attempt was made to measuring the amount of hydroxyproline in the mouse and thus indirectly measure the collagen content. Analysis was performed using INSOLUBLE Collagen Assay (Biocolor, S2000), and the details are as follows.
First, 10 mg of frozen skin tissue was pulverized with 100 ul of fragmentation reagent. 100 ul of 37% HCl was added and incubated at 65° C. for 3 hours. The contents of the tube were shaken at 30 minute intervals to aid tissue disintegration. Centrifugation was performed at 12,000 rpm for 10 minutes. After centrifugation, it was transferred to a 1.5 ml tube. 50 ul was taken from a sample between 10 and 100 ul, distilled water was added, and the sample was prepared so as to match with 100 ul.
1 ml of dye was added to 100 ul of the prepared sample, and mixed for 30 minutes. The mixture was centrifuged at 12,000 rpm for 10 minutes, and then transferred to a new tube. The dye was removed with 750 ul of ice-cold acid-salt wash reagent. After centrifugation at 12,000 rpm for 10 minutes, it was transferred to a new tube. The tube was mixed with the collagen-binding dye using a vortex mixer, and gollagen binding dye was dissolved within 10 minutes to complete the measurement preparation (measurement should be completed within 2˜3 hours). The tube cap was closed until it was ready to measure absorbance.
200 ul of each sample was transferred to an individual well of a 96 micro-well plate, and the absorbance was measured at 560 nm.

[8] = 3 and 10 mg/kg subcutaneous, immunochemical staining, *p<0.05, ***p<0.001 (FIG. 3)

## O[C@H]1CCCN[C@@H]1CCCn1cnc2c(Cl)c(Cl)ccc21 [Active ingredient]
[1]
  thickness of the 3D skin organoid: reduced
[2]; 3 mg/kg and 10 mg/kg subcutaneous, ***p<0.001 (FIG. 2)
  thickness of the skin tissue: significantly reduced
[2]; [8]
  fibrotic factor Collagen I in skin tissue: significantly reduced
  fibrotic factor Collagen III in skin tissue: significantly reduced
  fibrotic factor aSMA in skin tissue: significantly reduced
[3]; 3 mg/kg oral, 28 days
  Body weight (%) change: −2.45% and −2.14% and 1.34% and −0.33% and −1.93% and 8.65% and 3.02% and −0.36% and 1.07%
[3]; 10 mg/kg oral, 28 days
  Body weight (%) change: 4.62% and 2.54% and 1.96% and −4.1% and −2.48% and 0.48% and 0.14% and 4.88% and 4.78%
[3]; 30 mg/kg oral, 28 days
  Body weight (%) change: 12.09% and 7.78% and 2.13% and 2.34% and 1.45% and 9.52% and 5.35% and −2.86% and 7.57%
[3]; 30 mg/kg oral, 28 days, p<0.01
  body weight compared to the vehicle: significantly increased
[3]; from 3 mg/kg oral, 28 days
  changes in body weight, significance: significant results
[4]; 3 mg/kg oral
  Lung weight: 1.01 and 1.14 (2×) and 1.08 (2×) and 0.98 (2×) and 1.15 and 0.92
[4]; 10 mg/kg oral
  Lung weight: 0.98 and 1.22 and 1.14 and 1.12 and 0.95 and 1.16 and 0.99 and 0.93 and 1.08
[4]; 30 mg/kg oral
  change in lung weight corrected by body weight, significance: significance increased to p<0.01
  Lung weight: 1.10 and 0.99 and 0.90 and 0.98 (2×) and 1.03 and 0.94 and 1.09 and 0.97
[4]; from 10 mg/kg oral
  change in lung weight corrected by body weight, significance: showed a significance
[4]; only at 30 mg/kg oral
  change in lung weight, significance: significant tendency
[5]; 30 mg/kg oral, day 21
  oxygen saturation recovery rate versus nintedanib (60 mg/kg) group: comparable to that of nintedanib
[5]; 30 mg/kg oral, day 21, p<0.001
  SpO2 (oxygen saturation) compared with the vehicle: higher oxygen saturation
[5]; from 10 mg/kg oral, day 21 (FIG. 7)
  SpO2 (oxygen saturation), significance: significant results
[6]; 3 mg/kg oral
  density of collagen in the skin (MT stain): tendency to decrease
  skin thickness, significance: did not significantly decrease
  Skin thickness: 809.254 μm and 771.562 μm and 778.660 μm and 688.725 μm and 759.037 μm and 677.319 μm and 744.986 μm and 904.141 μm and 641.841 μm
[6]; 10 mg/kg oral
  skin thickness improvement effect compared with 60 mg/kg of nintedanib: superior
  Skin thickness: 526.170 μm and 521.027 μm and 425.415 μm and 456.862 μm and 672.616 μm and 593.826 μm and 601.558 μm and 809.106 μm and 708.308 μm
[6]; 30 mg/kg oral, P<0.0001 or less
  skin thickness, significance: very significant results
[6]; 30 mg/kg oral
  Skin thickness: 475.515 μm and 412.271 μm and 525.311 μm and 593.963 μm and 526.388 μm and 443.336 μm and 601.558 μm and 558.530 μm and 479.961 μm
[6]; active ingredient administered as a whole
  collagen density in the skin (MT stain): decreased
[6]; from 10 mg/kg oral
  skin thickness, significance: significant results
[7]; 3 mg/kg oral
  hydroxyproline value, ratio compared to a normal group: 1.51 (2×) and 1.96 and 1.66 and 1.94 and 1.85 and 1.74 and 1.57 and 2.01
[7]; 10 mg/kg oral
  hydroxyproline value, ratio compared to a normal group: 2.27 and 2.26 (2×) and 1.70 and 1.93 and 1.57 and 2.16 and 1.82 and 2.10
[7]; 30 mg/kg oral, P<0.001 or less
  amount of hydroxyproline in the skin, significance: very significant result
[7]; 30 mg/kg oral
  hydroxyproline value, ratio compared to a normal group: 1.70 and 1.48 and 1.81 and 2.04 and 2.09 (2×) and 1.75 and 1.77 and 1.28
[7]; from 10 mg/kg oral
  amount of hydroxyproline in the skin, significance: significant results

## COC(=O)c1ccc2c(c1)NC(=O)/C2=C(\Nc1ccc(N(C)C(=O)CN2CCN(C)CC2)cc1)c1ccccc1 [NIN, Nintedanib, reference compound]
[3]; nintedanib 60 mg/kg oral
  Body weight (%) change: −0.45% and 0.58% and 8.79% and 0.44% and −2.94% and 2.46% and 4.14% and 1.78% and 4.49%
[4]; nintedanib 60 mg/kg oral
  Lung weight: 0.96 and 0.99 (2×) and 1.04 and 0.95 and 1.01 and 0.98 and 1.16 and 0.89
[6]; nintedanib 60 mg/kg oral
  Skin thickness: 675.558 μm and 623.019 μm and 651.831 μm and 660.809 μm and 649.479 μm and 620.302 μm and 651.572 μm and 856.355 μm and 664.973 μm
[7]; nintedanib 60 mg/kg oral
  hydroxyproline value, ratio compared to a normal group: 1.34 and 1.83 and 1.63 and 1.53 and 1.08 and 1.37 and 1.43 and 1.65 and 1.45
